This note sets out measurements from BindingDB's records for doi:10.1021/acs.jmedchem.6b00709 (University of Berne, 2016).

A short description of this assay: Inhibition of Aurora A kinase in human HeLa Kyoto cells assessed as induction of defective chromosome alignment during metaphase incubated for 20 hrs.

In the case of `CCc1ccc(/N=C2\S/C(=C\c3ccnc(Nc4ccc(C(=O)O)cn4)c3)C(=O)N2C)cc1`, the EC50 – broadly, the concentration giving half of the maximal effect – turned out to be 6 µM.
